Source: article PMC5377825, “Catalytic Determinants of Alkene Production by the Cytochrome P450 Peroxygenase OleTJE” (The Journal of Biological Chemistry, 2017)
Substitutions are numbered along the chain they refer to. Read-outs that look alike come from different tables or passages of the source.

How the values were obtained:
Test in all cases: UV-visible heme spectral titration
Format in all cases: binding
OleTJE (CYP152L1) [1] = target: T1, OleTJE (CYP152L1) (Jeotgalicoccus sp. ATCC 8456, UniProt E9NSU2)
T1 construct: gene JEM45_03820; full length, codon-optimized gene in modified pET15b, N-terminal polyhistidine tag with TEV site; tag kept for spectroscopy, cleaved for crystallography; expressed in E. coli C41 (DE3)
T1 sequence (E9NSU2 1-422): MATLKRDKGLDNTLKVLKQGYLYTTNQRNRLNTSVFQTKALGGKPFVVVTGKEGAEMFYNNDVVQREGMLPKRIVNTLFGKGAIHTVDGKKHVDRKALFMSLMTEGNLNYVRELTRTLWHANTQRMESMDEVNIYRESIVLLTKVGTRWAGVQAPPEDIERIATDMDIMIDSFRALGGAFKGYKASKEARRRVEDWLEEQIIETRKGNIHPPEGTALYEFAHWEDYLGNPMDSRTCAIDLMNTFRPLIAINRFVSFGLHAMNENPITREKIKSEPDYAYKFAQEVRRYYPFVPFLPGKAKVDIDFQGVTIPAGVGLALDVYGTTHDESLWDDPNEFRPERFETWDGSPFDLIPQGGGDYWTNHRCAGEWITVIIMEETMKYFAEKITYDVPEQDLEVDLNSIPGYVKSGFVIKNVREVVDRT
Excerpt: (§1) UV-visible heme spectral titration on OleTJE (CYP152L1)

OleTJE (CYP152L1) [2] = target: T2, OleTJE (CYP152L1) (Jeotgalicoccus sp. ATCC 8456, UniProt E9NSU2, F79A)
T2 construct: gene JEM45_03820; full length, codon-optimized gene in modified pET15b, N-terminal polyhistidine tag with TEV site; tag kept for spectroscopy, cleaved for crystallography; expressed in E. coli C41 (DE3)
T2 sequence (E9NSU2 1-422 F79A): T1 sequence (E9NSU2 1-422) with F79A
Excerpt: as §1

OleTJE (CYP152L1) [3] = target: T3, OleTJE (CYP152L1) (Jeotgalicoccus sp. ATCC 8456, UniProt E9NSU2, R245E); details: read-out: Fatty acid Kd (HS) / C10:0
T3 construct: gene JEM45_03820; full length, codon-optimized gene in modified pET15b, N-terminal polyhistidine tag with TEV site; tag kept for spectroscopy, cleaved for crystallography; expressed in E. coli C41 (DE3)
T3 sequence (E9NSU2 1-422 R245E): T1 sequence (E9NSU2 1-422) with R245E
Excerpt: as §1

OleTJE (CYP152L1) [4] = target: T4, OleTJE (CYP152L1) (Jeotgalicoccus sp. ATCC 8456, UniProt E9NSU2, F79W)
T4 construct: gene JEM45_03820; full length, codon-optimized gene in modified pET15b, N-terminal polyhistidine tag with TEV site; tag kept for spectroscopy, cleaved for crystallography; expressed in E. coli C41 (DE3)
T4 sequence (E9NSU2 1-422 F79W): T1 sequence (E9NSU2 1-422) with F79W
Excerpt: as §1

OleTJE (CYP152L1) [5] = target: T5, OleTJE (CYP152L1) (Jeotgalicoccus sp. ATCC 8456, UniProt E9NSU2, F79Y)
T5 construct: gene JEM45_03820; full length, codon-optimized gene in modified pET15b, N-terminal polyhistidine tag with TEV site; tag kept for spectroscopy, cleaved for crystallography; expressed in E. coli C41 (DE3)
T5 sequence (E9NSU2 1-422 F79Y): T1 sequence (E9NSU2 1-422) with F79Y
Excerpt: as §1

OleTJE (CYP152L1) [6] = target: T6, OleTJE (CYP152L1) (Jeotgalicoccus sp. ATCC 8456, UniProt E9NSU2, H85Q)
T6 construct: gene JEM45_03820; full length, codon-optimized gene in modified pET15b, N-terminal polyhistidine tag with TEV site; tag kept for spectroscopy, cleaved for crystallography; expressed in E. coli C41 (DE3)
T6 sequence (E9NSU2 1-422 H85Q): T1 sequence (E9NSU2 1-422) with H85Q
Excerpt: as §1

[7] = read-out: Fatty acid Kd (HS) / C10:0
[8] = read-out: Fatty acid Kd (HS) / C12:0
[9] = read-out: Fatty acid Kd (HS) / C14:0
[10] = read-out: Fatty acid Kd (HS) / C16:0
[11] = read-out: Fatty acid Kd (HS) / C18:0
[12] = read-out: Fatty acid Kd (HS) / C20:0

CCCCCCCCCC(=O)O [C10:0, decanoic acid]
Kd (OleTJE (CYP152L1) [1]; [7]): 47.1 ± 2.1 µM
Kd (OleTJE (CYP152L1) [2]; [7]): 465 ± 11 µM
Kd (OleTJE (CYP152L1) [3]): 1260 ± 160 µM

CCCCCCCCCCCC(=O)O [C12:0, dodecanoic acid]
Kd (OleTJE (CYP152L1) [1]; [8]): 11.7 ± 0.43 µM
Kd (OleTJE (CYP152L1) [2]; [8]): 55 ± 4.8 µM
Kd (OleTJE (CYP152L1) [4]; [8]): 106 ± 9 µM
Kd (OleTJE (CYP152L1) [5]; [8]): 196 ± 5 µM
Kd (OleTJE (CYP152L1) [6]; [8]): 37.3 ± 2.5 µM

CCCCCCCCCCCCCC(=O)O [C14:0, tetradecanoic acid]
Kd (OleTJE (CYP152L1) [1]; [9]): 1.45 ± 0.05 µM
Kd (OleTJE (CYP152L1) [2]; [9]): 39.1 ± 2.5 µM
Kd (OleTJE (CYP152L1) [4]; [9]): 24.1 ± 0.9 µM
Kd (OleTJE (CYP152L1) [5]; [9]): 30.7 ± 1 µM
Kd (OleTJE (CYP152L1) [6]; [9]): 10.5 ± 0.1 µM

CCCCCCCCCCCCCCCC(=O)O [C16:0, hexadecanoic acid]
Kd (OleTJE (CYP152L1) [1]; [10]): 1.73 ± 0.08 µM
Kd (OleTJE (CYP152L1) [2]; [10]): 22.6 ± 1.9 µM
Kd (OleTJE (CYP152L1) [4]; [10]): 12.7 ± 0.7 µM
Kd (OleTJE (CYP152L1) [6]; [10]): 5.36 ± 0.18 µM

CCCCCCCCCCCCCCCCCC(=O)O [C18:0, octadecanoic acid]
Kd (OleTJE (CYP152L1) [1]; [11]): 4.09 ± 0.16 µM
Kd (OleTJE (CYP152L1) [2]; [11]): 8.7 ± 0.5 µM
Kd (OleTJE (CYP152L1) [4]; [11]): 4.52 ± 0.2 µM
Kd (OleTJE (CYP152L1) [6]; [11]): 5.92 ± 0.08 µM

CCCCCCCCCCCCCCCCCCCC(=O)O [C20:0, eicosanoic acid]
Kd (OleTJE (CYP152L1) [1]; [12]): 4.43 ± 0.19 µM
Kd (OleTJE (CYP152L1) [2]; [12]): 3.4 ± 0.3 µM
Kd (OleTJE (CYP152L1) [4]; [12]): 4.41 ± 0.27 µM
Kd (OleTJE (CYP152L1) [5]; [12]): 4.25 ± 0.21 µM
Kd (OleTJE (CYP152L1) [6]; [12]): 5.27 ± 0.05 µM
